{"source": "patent US20040122013A1", "about": "“Analogs of nocicettin” (priority 2002, published 2004)", "key": {"[1]": {"system": "N/OFQ-sensitive isolated tissues", "experiment": "N/OFQ-sensitive electrically stimulated isolated tissues (mouse and rat vas deferens, guinea pig ileum)", "source_text": "The compounds of the Table have been evaluated in vitro in several N/OFQ-sensitive isolated tissues from various species such as the rat, mouse and guinea pig and in Chinese hamster ovary cells expressing the human recombinant NOP receptor (CHOhNop). The conditions adopted for studying the effects of the compounds in the electrically stimulated tissues (mouse and rat vas deferens, guinea pig ileum) are described in Bigoni et al. (Naunyn Schmiedebergs Arch Pharmacol 359, 160-7, 1999, herein incorporated by reference), whereas the conditions adopted for investigating the effects in CHOhNop cells are disclosed in Okawa et al. (Br J Pharmacol 127, 123-130, 1999, herein incorporated by reference)."}, "[2]": {"biological_target": "T1, recombinant human NOP receptors expressed in HEK293 cells (Homo sapiens, UniProt P41146)", "T1 construct": "host or cells: HEK293 cells", "T1 sequence (P41146 whole entry)": "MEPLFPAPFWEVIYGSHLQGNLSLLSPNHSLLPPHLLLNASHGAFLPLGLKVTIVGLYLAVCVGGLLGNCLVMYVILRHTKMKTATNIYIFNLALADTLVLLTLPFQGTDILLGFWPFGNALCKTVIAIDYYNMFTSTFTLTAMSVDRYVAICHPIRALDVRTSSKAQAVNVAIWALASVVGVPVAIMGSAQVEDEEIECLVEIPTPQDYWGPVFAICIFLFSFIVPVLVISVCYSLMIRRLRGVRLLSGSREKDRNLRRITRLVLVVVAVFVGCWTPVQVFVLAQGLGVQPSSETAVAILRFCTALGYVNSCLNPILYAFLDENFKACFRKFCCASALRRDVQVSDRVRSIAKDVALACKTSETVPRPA", "settings": "Okada et al. 2000; cited from earlier work"}, "NOP receptor": {"system": "NOP receptor", "experiment": "Antagonism of agonist effects by naloxone and [Nphe1]N/OFQ(1-13)NH2", "settings": "tested vs the novel agonist compounds or vs N/OFQ", "description": "In isolated tissues the compounds having structure [Phe^1Ψ(CO—NH)Gly^2] mimicked the effects of N/OFQ inducing similar maximal effects, thus acting as full agonists, while those with the structure [Phe^1Ψ(CH2—NH)Gly^2] behaved as partial agonists producing lower maximal effects than N/OFQ. […] Some of the compounds evaluated in vitro were also tested in a battery of in vivo assays of biological functions regulated by N/OFQ. In all the assays most of the analogs mimicked the effects evoked by the natural peptide. In the locomotor activity assay some compounds have been tested at 1 nmol i.c.v. dose. These mimicked the inhibitory effect of N/OFQ, however while the effects of the natural peptide lasted for about 20 min, those induced by some of the novel derivatives were still evident after several hours. […] Similar results were also obtained in the mouse tail withdrawal assay were the compounds mimicked the hyperalgesic actions of N/OFQ."}, "mice [3]": {"system": "mice", "experiment": "Mouse tail withdrawal assay (pronociception)", "type": "in vivo"}, "[4]": {"biological_target": "T2, human recombinant NOP receptor (Homo sapiens, UniProt P41146)", "T2 construct": "expressed in transfected cells; host or cells: Chinese hamster ovary (CHO) cells", "T2 sequence (P41146 whole entry)": "as above", "experiment": "cell-based", "settings": "CHOhNOP, cAMP inhibition"}, "[5]": {"biological_target": "T2, human recombinant NOP receptor", "experiment": "biochemical", "settings": "CHOhNOP, stimulation of GTPγS binding"}, "mice [6]": {"system": "mice", "type": "in vivo, mouse"}, "mouse vas deferens": {"system": "mouse vas deferens", "experiment": "Electrically induced twitch inhibition, mouse vas deferens (mVD)"}, "guinea pig ileum": {"system": "guinea pig ileum", "experiment": "Electrically induced twitch inhibition, guinea pig ileum (gpI)"}, "[7]": {"settings": "locomotor activity depression, i.c.v., mice"}}, "note": "Where two headings read alike, the source gives them in different places."}
{"molecule": "[(pI)Phe^4]-N/OFQ-NH2", "values": [{"measurement": "Potency compared with N/OFQ", "setting": "[1]; isolated tissues", "result": "lower"}]}
{"molecule": "[Arg^14,Lys^15]N/OFQ", "values": [{"measurement": "Potency relative to N/OFQ", "setting": "[2]", "result": 17, "unit": "fold"}]}
{"molecule": "H-Phe-Ψ(CH2NH)-Gly-Gly-(pF)Phe-Thr-Gly-Ala-Arg-Lys-Ser-Ala-Arg-Lys-Arg-Lys-Asn-Gln-NH2 [b)]", "values": [{"measurement": "Intrinsic activity (full or partial agonist)", "setting": "[1]; isolated tissues, maximal effect compared with N/OFQ", "result": "partial agonist activity"}]}
{"molecule": "[Nphe^1]N/OFQ(1-13)NH2", "values": [{"measurement": "pA2", "setting": "NOP receptor", "result": "6.0-6.4"}]}
{"molecule": "C[C@H](NC(=O)CNC(=O)[C@@H](NC(=O)[C@H](Cc1ccc(F)cc1)NC(=O)CNC(=O)CNC(=O)[C@@H](N)Cc1ccccc1)[C@@H](C)O)C(=O)N[C@@H](CCCNC(=N)N)C(=O)N[C@@H](CCCCN)C(=O)N[C@@H](CO)C(=O)N[C@@H](C)C(=O)N[C@@H](CCCNC(=N)N)C(=O)N[C@@H](CCCCN)C(=O)N[C@@H](CCCNC(=N)N)C(=O)N[C@@H](CCCCN)C(=O)N[C@@H](CC(N)=O)C(=O)N[C@@H](CCC(N)=O)C(N)=O", "note": "[UFP-102]", "values": [{"measurement": "Duration of action", "setting": "mice [3]", "result": ">2", "unit": "h"}, {"measurement": "Effective dose", "setting": "mice [3]", "result": 0.1, "unit": "nmol"}, {"measurement": "EC50", "setting": "[4]", "result": 67.6, "unit": "pM"}, {"measurement": "Emax", "setting": "[4]", "result": "104 ± 3", "unit": "%"}, {"measurement": "Intrinsic activity (full or partial agonist)", "setting": "[1]", "result": "full agonist activity"}, {"measurement": "Potency compared with N/OFQ", "setting": "[1]", "result": "higher than that of N/OFQ"}, {"measurement": "EC50", "setting": "[5]", "result": 75.9, "unit": "pM"}, {"measurement": "Emax", "setting": "[5]", "result": "12.26 ± 1.37"}, {"measurement": "Duration of action", "setting": "mice [6]; [7]", "result": ">3", "unit": "h"}, {"measurement": "Effective dose", "setting": "mice [6]; [7]", "result": 0.1, "unit": "nmol"}, {"measurement": "Potency relative to N/OFQ", "setting": "mice [6]; mouse, in vivo", "result": "more than 10 fold"}, {"measurement": "Emax", "setting": "mouse vas deferens", "result": "94 ± 1", "unit": "%"}, {"measurement": "pEC50", "setting": "mouse vas deferens", "result": 9.36}, {"measurement": "Emax", "setting": "guinea pig ileum", "result": "55 ± 4", "unit": "%"}, {"measurement": "pEC50", "setting": "guinea pig ileum", "result": 8.98}]}
{"molecule": "CC(C)C[C@H](NC(=O)[C@H](CCCCN)NC(=O)[C@H](CCCNC(=N)N)NC(=O)[C@H](C)NC(=O)[C@H](CO)NC(=O)[C@H](CCCCN)NC(=O)[C@H](CCCNC(=N)N)NC(=O)[C@H](C)NC(=O)CNC(=O)[C@@H](NC(=O)[C@H](Cc1ccccc1)NC(=O)CNC(=O)CNC(=O)[C@@H](N)Cc1ccccc1)[C@@H](C)O)C(=O)N[C@@H](C)C(=O)N[C@@H](CC(N)=O)C(=O)N[C@@H](CCC(N)=O)C(=O)O", "note": "[N/OFQ, reference compound]", "values": [{"measurement": "Duration of action", "setting": "mice [3]", "result": 0.25, "unit": "h"}, {"measurement": "Effective dose", "setting": "mice [3]", "result": 1, "unit": "nmol"}, {"measurement": "Effective dose", "setting": "mice [6]; [7]", "result": 1, "unit": "nmol"}, {"measurement": "Emax", "setting": "mouse vas deferens", "result": "91 ± 2", "unit": "%"}, {"measurement": "pEC50", "setting": "mouse vas deferens", "result": 7.77}, {"measurement": "Emax", "setting": "guinea pig ileum", "result": "56 ± 5", "unit": "%"}, {"measurement": "pEC50", "setting": "guinea pig ileum", "result": 8.04}]}
